The nature of one data set: Acute toxicity. Conditions: mouse, in vivo, ip, Swiss mice, observed for a week. The protocol:
The acute toxicity was determined on groups of Swiss mice weighing 18 to 22 g and the test products were administered intraperitoneally in increasing doses and the animals were kept under observation for a week.

The subject of a further data set is amphetamine deaths. Nature of the data set: Amphetamine toxicity in mice. The data set is classed as in vivo, mice (female). Conditions: mortality at 4 h. The protocol:
The test was effected on group of 10 female mice weighing between 18 and 22 g kept at 27° C for the duration of the test. The test products were intraperitoneally administered in different doses in a volume of 0.01 ml /g of mouse. One hour later, the mice received an injection of 15 mg/kg of a solution of 1.5 mg of amphetamine per ml of physiological serum. The mortality 4 hours after the amphetamine injection was determined and the results were expressed as a ratio of number of dead animals to number of starting animals.

The subject of data set [1] is pentamethylenetetrazol convulsions. The data set is described as follows: Anticonvulsant effect (pentamethylenetetrazol perfusion). The data set is classed as in vivo, mice (female). The conditions noted are these: 1 h before perfusion. The protocol:
The anticonvulsant activity of the compounds was determined on groups of 10 female mice with intraperitoneal administration of the test compounds in acid solution at different doses and the control group received only the solvent. One hour after the injection, the mice were perfused with a solution of pentamethylenetetrazol in physiological serum at a concentration of 3 mg/ml. The perfusion was intraveinous at a rate of 1 ml per minute and in the course of the perfusion, the progress of introxication was characterized by the following 3 criteria:
a. Threshold of convulsant effect (myoclonia of the ears)
b. Crisis of clonic convulsions
c. Tonic convulsion with apnea and generally followed by death.

A further data set has as its system amytal sleeping time. Nature of the data set: Potentialization of sleeping time (amytal). The data set is classed as in vivo, mice (female). The conditions noted are these: 1 h before 80 mg/kg amytal i.v. The protocol: The potentialization of sleeping time was determined with a test using amytal [5-ethyl-5-isoamyl-barbituric acid] in which groups of female mice weighing between 18 and 22 g were kept at 25° C for the duration of the test. The test products were administered intraperitoneally at different doses one hour before intraveinous injection of 80 mg/kg of amytal and the sleeping time was noted which is the time while the reflux of straightening in the mice was negative.

[2] abbreviates: 5 mg/Kg i.p., 1 h before 15 mg/kg amphetamine.
[3] abbreviates: 10 mg/Kg i.p., 1 h before 15 mg/kg amphetamine.
Where [4] appears, read: 20 mg/Kg i.p., 1 h before 15 mg/kg amphetamine.
[5] abbreviates: 2 mg/Kg i.p., 1 h before 15 mg/kg amphetamine.

Some results are limits rather than exact numbers.

The LD50 is the dose at which mortality reaches 50%. As for `CNCC(=O)N1C2Cc3ccccc3C1c1ccccc12` (stereo not drawn) [Example 25, 12-(methylaminoacetyl)-10,11-dihydro-5,10-imino-[5H]-dibenzo (a,d) cycloheptene dl], in “Acute toxicity”, the LD50 at 168 h is around 300 mg/kg.
Still for that read-out and setting: next, `C[N+]1(C)C2Cc3ccccc3C1c1ccccc12` (stereo not drawn) [Example 16, 12-methyl-10,11-dihydro-5,10-imino-[5H]-dibenzo (a,d) cycloheptene dl iodomethylate]: above 200 mg/kg.
`O=C(Oc1ccccc1[N+](=O)[O-])N1C2Cc3ccccc3C1c1ccccc12` (stereo not drawn) [Example 8, 12-(o-nitrophenoxycarbonyl)-10,11-dihydro-5,10-imino-[5H]-dibenzo (a,d) cycloheptene dl] gave an LD50 at 168 h in the data set “Acute toxicity” above 1000 mg/kg.
Consider `CN1C2Cc3ccccc3C1c1ccc(Cl)cc12` (stereo not drawn) [Example 26, 8-chloro-12-methyl-10,11-dihydro-5,10-imino-[5H]-dibenzo (a,d) cycloheptene dl], for which the “ratio of number of dead animals to number of starting animals” value (“ratio of number of dead animals” below) in the data set on amphetamine deaths (setting [2]) is reported as 10/10; in the data set with amphetamine deaths (setting [3]) it was 10/10; in the data set on amphetamine deaths (setting [4]) it was 10/10; with amphetamine deaths (head prints only "mg/Kg" (dose figure missing), i.p.), 1/9. The “Dose of pentamethylenetetrazol, Clonic Crisis” value (“Dose … Clonic Crisis” below) in data set [1] (5 mg/Kg i.p.) worked out at 50.8 mg/kg; in data set [1] (10 mg/Kg i.p.), 52.0 mg/kg; in data set [1] (20 mg/Kg i.p.), 56.4 mg/kg; in data set [1] (50 mg/Kg i.p.), 66.7 mg/kg. In addition, the “Dose of pentamethylenetetrazol, Myoclonia” value (“Dose … Myoclonia” below) in data set [1] (5 mg/Kg i.p.) worked out at 43.9 mg/kg; in data set [1] (10 mg/Kg i.p.), 44.1 mg/kg; in data set [1] (20 mg/Kg i.p.) it was 49.7 mg/kg; in data set [1] (50 mg/Kg i.p.), 52.6 mg/kg. In addition, the “Dose of pentamethylenetetrazol, Tonic Crisis” value (“Dose … Tonic Crisis” below) in data set [1] (5 mg/Kg i.p.) came out at 128 mg/kg; in data set [1] (10 mg/Kg i.p.), 174.7 mg/kg; in data set [1] (20 mg/Kg i.p.) it was 230.2 mg/kg; in data set [1] (50 mg/Kg i.p.) it was 274.2 mg/kg. The average sleeping time in the data set on amytal sleeping time (5 mg/Kg i.p.) is 22.6 min; in the data set on amytal sleeping time (10 mg/Kg i.p.) it was 27.4 min; in the data set on amytal sleeping time (20 mg/Kg i.p.), 36.0 min; in the data set on amytal sleeping time (50 mg/Kg i.p.) it was 94.5 min. Also, in the data set “Acute toxicity”, the LD50 at 168 h was around 350 mg/kg.
For `c1ccc(CN2C3Cc4ccccc4C2c2ccccc23)cc1` (stereo not drawn) [Example 23, 12-benzyl-10,11-dihydro-5,10-imino-[5H]-dibenzo (a,d) cycloheptene dl], the LD50 at 168 h in the data set “Acute toxicity” was above 400 mg/kg.
With `C#CCN1C2Cc3ccccc3C1c1ccccc12` (stereo not drawn) [Example 20, 12-propargyl-10,11-dihydro-5,10-imino-[5H]-dibenzo (a,d) cycloheptene dl], the “ratio of number of dead animals” value in the data set with amphetamine deaths (setting [5]) is listed as 9/10; in the data set on amphetamine deaths (setting [2]), 9/10; in the data set with amphetamine deaths (setting [3]), 7/10; in the data set with amphetamine deaths (setting [4]) it was 1/10. For the same molecule, the “Dose … Clonic Crisis” value in data set [1] (0.5 mg/Kg i.p.) turned out to be 49.1 mg/kg; in data set [1] (1 mg/Kg i.p.), 46.7 mg/kg; in data set [1] (2 mg/Kg i.p.), 46.2 mg/kg; in data set [1] (5 mg/Kg i.p.), 49.0 mg/kg. Also, the “Dose … Myoclonia” value in data set [1] (0.5 mg/Kg i.p.) was 44.2 mg/kg; in data set [1] (1 mg/Kg i.p.), 41.9 mg/kg; in data set [1] (2 mg/Kg i.p.) it was 41.2 mg/kg; in data set [1] (5 mg/Kg i.p.), 43.9 mg/kg. The “Dose … Tonic Crisis” value in data set [1] (0.5 mg/Kg i.p.) is 140.7 mg/kg; in data set [1] (1 mg/Kg i.p.), 146.4 mg/kg; in data set [1] (2 mg/Kg i.p.), 168.5 mg/kg; in data set [1] (5 mg/Kg i.p.) it was 221.7 mg/kg. Further, the average sleeping time turned out to be 41.8 min with amytal sleeping time (0.5 mg/Kg i.p.), 46.5 min in the data set with amytal sleeping time (1 mg/Kg i.p.), 49.4 min in the data set with amytal sleeping time (2 mg/Kg i.p.) and 64.9 min in the data set on amytal sleeping time (5 mg/Kg i.p.).
Consider `NC(=O)N1C2Cc3ccccc3C1c1ccccc12` (stereo not drawn) [Example 13, 12-carbamoyl-10,11-dihydro-5,10-imino-[5H]-dibenzo (a,d) cycloheptene dl], for which the LD50 at 168 h in “Acute toxicity” was determined as 1000 mg/kg.
Take `CC(=O)N1C2Cc3ccccc3C1c1ccccc12` (stereo not drawn) [Example 10, 12-acetyl-10,11-dihydro-5,10-imino-5H]-dibenzo (a,d) cycloheptene dl]: the LD50 at 168 h in “Acute toxicity” was above 500 mg/kg.
`ClCCN1C2Cc3ccccc3C1c1ccccc12` (stereo not drawn) [Example 27, 12-(2'-chloroethyl)-10,11-dihydro-5,10-imino-[5H]-dibenzo (a,d) cycloheptene dl]: the “ratio of number of dead animals” value with amphetamine deaths (setting [2]) is 10/10; in the data set on amphetamine deaths (setting [3]) it was 8/10; in the data set on amphetamine deaths (setting [4]), 2/10. Further, the “Dose … Clonic Crisis” value in data set [1] (2 mg/Kg i.p.) came to 52.9 mg/kg; in data set [1] (5 mg/Kg i.p.) it was 56.7 mg/kg; in data set [1] (10 mg/Kg i.p.), 62.1 mg/kg. Besides, the “Dose … Myoclonia” value in data set [1] (2 mg/Kg i.p.) came out at 45.9 mg/kg; in data set [1] (5 mg/Kg i.p.), 51.5 mg/kg; in data set [1] (10 mg/Kg i.p.), 57 mg/kg. The “Dose … Tonic Crisis” value in data set [1] (2 mg/Kg i.p.) stood at 163.2 mg/kg; in data set [1] (5 mg/Kg i.p.), 229.8 mg/kg; in data set [1] (10 mg/Kg i.p.), 258.2 mg/kg. In addition, the average sleeping time in the data set on amytal sleeping time (2 mg/Kg i.p.) amounted to 21.7 min; in the data set with amytal sleeping time (5 mg/Kg i.p.), 42.2 min; with amytal sleeping time (10 mg/Kg i.p.) it was 44.8 min; with amytal sleeping time (20 mg/Kg i.p.) it was 83.0 min. For the same molecule, the 50% lethal dose (LD50) at 168 h in “Acute toxicity” was around 150 mg/kg.
Turning to `c1ccc2c(c1)CC1NC2c2ccccc21` (stereo not drawn) [Example 1, 10,11-dihydro-5,10-imino-[5H]-dibenzo (a,d) cycloheptene dl], the “ratio of number of dead animals” value in the data set with amphetamine deaths (1 mg/Kg i.p., 1 h before 15 mg/kg amphetamine) is given as 10/10; in the data set with amphetamine deaths (setting [5]) it was 5/10; in the data set on amphetamine deaths (200γ/Kg i.p., 1 h before 15 mg/kg amphetamine), 9/10; in the data set with amphetamine deaths (500γ/Kg i.p., 1 h before 15 mg/kg amphetamine), 9/10. The molecule also displayed a median lethal dose (LD50) at 168 h in the data set “Acute toxicity” of 150 mg/kg.
The molecule `CP(C)(=O)CN1C2Cc3ccccc3C1c1ccccc12` (stereo not drawn) [Example 9, 12-dimethylphosphorosomethyl-10.11-dihydro-5,10-imino-[5H]-dibenzo (a,d) cycloheptene dl] gave a 50% lethal dose (LD50) at 168 h in “Acute toxicity” of 350 mg/kg.
As for `C=CCN1C2Cc3ccccc3C1c1ccccc12` (stereo not drawn) [Example 19, 12-allyl-10,11-dihydro-5,10-imino-[5H]-dibenzo (a,d) cyclo-heptene dl], the “Dose … Clonic Crisis” value was found to be 50.0 mg/kg in data set [1] (2 mg/Kg i.p.), 49.8 mg/kg in data set [1] (5 mg/Kg i.p.), 52.4 mg/kg in data set [1] (10 mg/Kg i.p.) and 54.7 mg/kg in data set [1] (20 mg/Kg i.p.). Moreover, the “Dose … Myoclonia” value stood at 44.8 mg/kg in data set [1] (2 mg/Kg i.p.), 44.5 mg/kg in data set [1] (5 mg/Kg i.p.), 47.4 mg/kg in data set [1] (10 mg/Kg i.p.) and 49.2 mg/kg in data set [1] (20 mg/Kg i.p.). For the same molecule, the “Dose … Tonic Crisis” value in data set [1] (2 mg/Kg i.p.) was 150.8 mg/kg; in data set [1] (5 mg/Kg i.p.) it was 136.0 mg/kg; in data set [1] (10 mg/Kg i.p.), 241.9 mg/kg; in data set [1] (20 mg/Kg i.p.), 271.8 mg/kg. For the same molecule, the average sleeping time was 37.1 min in the data set with amytal sleeping time (2 mg/Kg i.p.), 65.1 min with amytal sleeping time (5 mg/Kg i.p.), 71.7 min with amytal sleeping time (10 mg/Kg i.p.) and above 120 min in the data set on amytal sleeping time (20 mg/Kg i.p.). In “Acute toxicity”, this molecule gave an LD50 at 168 h of 350 mg/kg.
`CCOC(=O)N1C2Cc3ccccc3C1c1ccccc12` (stereo not drawn) [Example 17, 12-carbethoxy-10,11-dihydro-5,10imino-[5H]-dibenzo (a,d) cycloheptene dl]: in “Acute toxicity”, the LD50 at 168 h is 1000 mg/kg.

The record behind these values is patent US4009273A, “Substituted 10,11-dihydro-5,10-imino-[5H] dibenzo (a,d)-cycloheptene” (priority 1972, dated 1977).
